In PubChem BioAssay AID2060896 (Molecular Pharmacology Branch, DTP, NCI, 2025):
Where “and” joins values, the source holds several entries; their conditions need not be identical. Equal values may be shown once.

Test system: 941728-121-R-J1-PDC complex spheroid viability
Test: Anticancer human tumor 941728-121-R-J1-PDC patient-derived lung adenocarcinoma cell line growth inhibition [RAS]
Conditions: for viability, T/C: stronger effect = lower value
Text: RAS pathway inhibitors in Combinations in Complex Spheroids
A high-throughput screen of multi-cell type tumor spheroids was designed to identify active combinations of RAS pathway inhibitors and targeted small molecules. Complex spheroids include a stromal component modeled by human endothelial cells (HUVEC) and fibroblasts modeled by human mesenchymal stem cells (MSCs). The concentration ranges selected for each drug and investigational agent were based upon clinically achievable concentrations if the clinical Cmax of the agent was known.
Compounds. The drugs and investigational agents: abemaciclib (NSC768073), cobimetinib (NSC768068), divarasib (GDC6063, NSC841802), docetaxel (NSC628503), GDC-1971 (RLY-1971, NSC841576), gemcitabine (NSC613327), inavolisib (NSC800729), ipatasertib (NSC767898), KB-0742 (NSC834161), MRTX-1133 (NSC836407), osimertinib (NSC779217), RMC-4630 (NSC839698), RMC-6236 (NSC851965), RMC-6291 (NSC852671), Ro-3306 (NSC812927), sapanisertib (NSC764658), SN-38 (NSC673596), staurosporine (NSC755774), SY5609 (NSC837396), and tovorafenib (DAY101, NSC766906), were obtained from the National Cancer Institute (NCI) Developmental Therapeutics Program Chemical Repository. The FDA-approved anticancer drug set is available from the NCI Developmental Therapeutics Program. […] The stock solutions were prepared in dimethyl sulfoxide (DMSO, Sigma-Aldrich, St. Louis, MO, cat. D2650) at 800-fold the tested concentration and stored at -70 degrees C prior to their use. All drugs and investigational agents were tested over a range starting from a high concentration at or near the clinical Cmax and decreasing in half-log increments. If the clinical Cmax for an agent had not been determined, the highest concentration tested was 10 microM.
Cell Culture. All cells were maintained in an incubator at 37 degrees C and 5% CO2 with 95% humidity. The PDC lines were cultured according to standard operating procedures established by the NCI PDMR. All PDCs were thawed and cultured in Matrigel-coated flasks prepared with a working solution of 1X Ham's F-12 nutrient mix, without supplementation (Invitrogen, Waltham, MA, cat. 11765054), 100 U/mL penicillin-streptomycin (Invitrogen, cat. 15140122), and 2.5% Matrigel (Corning Inc., Corning, NY, cat. 354248) for the first three passages. The 362531-283-R-J2-PDC and 782815-120-R-J1-PDC lines were cultured in 6C/Colon 1B media, which includes advanced DMEM/F-12 (Thermo Fisher Scientific, cat. 12634028), 10 mM HEPES (Thermo Fisher Scientific, cat. 15630080), 1X GlutaMAX supplement (Thermo Fisher Scientific, cat. 35050061), 0.1 mg/mL primocin (InvivoGen, San Diego, CA, cat. ant-pm-2), 10% defined fetal bovine serum, heat inactivated (HyClone Laboratories Inc., Logan, UT, cat. SH30070.03HI), 50% L-WRN conditioned media (ATCC, cat. CRL-3276), 1.25 mM N-Acetyl-L-cysteine (Sigma-Aldrich, cat. A9165), 10 mM nicotinamide (Sigma-Aldrich, cat. N0636), 1X B-27 supplement (Thermo Fisher Scientific, cat. 17504044), 1X N-2 supplement (Thermo Fisher Scientific, cat. 17502048), 50 ng/mL human EGF (Thermo Fisher Scientific, cat. PHG0311), and 10 microM Y-27632 dihydrochloride (Tocris Bioscience, cat. 1254). The K12877-001-R-J1-PDC line was cultured in 6I media, which includes all 6C/Colon 1B media plus 10 ng/mL human FGF-10 (PeproTech, cat. 100-26), 1 ng/mL human FGF-2 (PeproTech, cat. 100-18B), 1 µM prostaglandin E2 (Tocris Bioscience, cat. 2296), […] hydrocortisone (Sigma-Aldrich, cat. H4001), and […] bovine insulin (Sigma-Aldrich, cat. I6634). The K86415-001-R-J1-PDC line was cultured in 6D media, which includes all 6C/Colon 1B media components minus the L-WRN conditioned media. The 485176-168-R4-J1-PDC was cultured in PANC media, which includes all 6C/Colon 1B media plus 100 ng/mL human FGF-10 (PeproTech, cat. 100-26), 500 nM SB-431542 (Selleckchem, cat. S1067), and 10 nM gastrin (Tocris Bioscience, cat. 3006). […]

[1] = compound alone, run of 07/15/2024
[2] = compound alone, run of 07/09/2024
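Also: spheroids exposed to compounds for 7 days before readout.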
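For viability, T/C in this document: 100% = DMSO vehicle control viability.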

SMILES | viability, T/C (compound 0.0316 µM) | viability, T/C (compound 0.1 µM) | viability, T/C (compound 0.316 µM) | viability, T/C (compound 1 µM) | viability, T/C (compound 3.16 µM) | viability, T/C (compound 10 µM) | viability, T/C (compound 0.00316 µM) | viability, T/C (compound 0.01 µM) | IC50 (curve of compound) | other results
C#Cc1c(F)ccc2cc(O)cc(-c3ncc4c(N5CC6CCC(C5)N6)nc(OCC56CCCN5CC(F)C6)nc4c3F)c12 (stereo unspecified) | 87.4% [middle of 8 runs] | 82.9% [middle of 8 runs] | 61.2% [middle of 8 runs] | 41.3% [middle of 8 runs] | 32.1% [middle of 8 runs] | 23.3% [middle of 8 runs] |  |  |  | IC50 [1]: 603 nM [middle of 8 runs]
C=CC(=O)N1CCN(c2nc(OCC3CCCN3C)nc3c(F)c(-c4nc(N)cc(C)c4C(F)(F)F)c(Cl)cc23)C(C)C1 (stereo unspecified) | 19.9% [middle of 12 runs] | 19.5% [middle of 12 runs] | 22.8% [middle of 12 runs] | 21% [middle of 12 runs] |  |  | 21.7% [middle of 12 runs] | 19.7% [middle of 12 runs] | < 3.16 nM | IC50 [1]: < 3.16 nM
C=CC(=O)Nc1cc(Nc2nccc(-c3cn(C)c4ccccc34)n2)c(OC)cc1N(C)CCN(C)C | 68.2% [middle of 4 runs] | 67.7% [middle of 4 runs] | 55.6% [middle of 4 runs] | 47.3% [middle of 4 runs] |  |  | 98.4% [middle of 4 runs] | 82.8% [middle of 4 runs] |  | 
CC(C)NCC(C(=O)N1CCN(c2ncnc3c2C(C)CC3O)CC1)c1ccc(Cl)cc1 (stereo unspecified) | 93.8% [middle of 4 runs] | 90.7% [middle of 4 runs] | 74.2% [middle of 4 runs] |  | 54.6% [middle of 4 runs] | 42.7% [middle of 4 runs] |  |  | 844 nM and 5470 nM and 2640 nM | 
CC(C)n1nc(-c2ccc3oc(N)nc3c2)c2c(N)ncnc21 | 40.9% [middle of 4 runs] | 34.5% [middle of 4 runs] |  |  |  |  | 60.5% [middle of 4 runs] | 55.1% [middle of 4 runs] | 11.4 nM [middle of 4 runs] | viability, T/C (compound 0.000316 µM): 102% [middle of 4 runs]; viability, T/C (compound 0.001 µM): 86.9% [middle of 4 runs]
CC(Nc1ccc2c(c1)OCCn1cc(N3C(=O)OCC3C(F)F)nc1-2)C(N)=O (stereo unspecified) | 81% [middle of 4 runs] | 53.6% [middle of 4 runs] | 40.8% [middle of 4 runs] | 42.5% [middle of 4 runs] | 37.6% [middle of 4 runs] | 34.7% [middle of 4 runs] |  |  | 144 nM [middle of 4 runs] | 
CC1(C)CCC(Nc2ncc(C(F)(F)F)c(-c3c[nH]c4c(P(C)(C)=O)c(C#N)ccc34)n2)CN1 (stereo unspecified) |  |  |  |  |  |  |  |  | > 300 nM | viability, T/C (compound 0.000949 µM): 83.9% [middle of 4 runs]; viability, T/C (compound 0.003 µM): 79.2% [middle of 4 runs]; viability, T/C (compound 0.00949 µM): 62.7% [middle of 4 runs]; viability, T/C (compound 0.03 µM): 63.8% [middle of 4 runs]; viability, T/C (compound 0.0949 µM): 65% [middle of 4 runs]; viability, T/C (compound 0.3 µM): 53.4% [middle of 4 runs]
CC1(O)CCCC1n1c(=O)c(C(F)F)cc2cnc(NC3CCN(S(C)(=O)=O)CC3)nc21 (stereo unspecified) | 87% [middle of 4 runs] | 84.6% [middle of 4 runs] | 75.3% [middle of 4 runs] | 83.9% [middle of 4 runs] |  | 51.8% [middle of 4 runs] |  |  | 5940 nM and > 10000 nM and 7430 nM | 
CCN1CCN(Cc2ccc(Nc3ncc(F)c(-c4cc(F)c5nc(C)n(C(C)C)c5c4)n3)nc2)CC1 | 65.2% [middle of 4 runs] | 57.7% [middle of 4 runs] | 70.8% [middle of 4 runs] | 72.4% [middle of 4 runs] |  |  | 93.9% [middle of 4 runs] | 80.5% [middle of 4 runs] | > 1000 nM | 
CCc1c2c(nc3ccc(O)cc13)-c1cc3c(c(=O)n1C2)COC(=O)[C@]3(O)CC |  |  |  |  |  |  |  |  | 44.2 nM and > 300 nM and 89 nM | viability, T/C (compound 0.000949 µM): 85.2% [middle of 4 runs]; viability, T/C (compound 0.003 µM): 73.3% [middle of 4 runs]; viability, T/C (compound 0.00949 µM): 62.9% [middle of 4 runs]; viability, T/C (compound 0.03 µM): 67.4% [middle of 4 runs]; viability, T/C (compound 0.0949 µM): 58.9% [middle of 4 runs]; viability, T/C (compound 0.3 µM): 50% [middle of 4 runs]
CCn1c(-c2cc(N3CCN(C)CC3)cnc2C(C)OC)c2c3cc(ccc31)-c1csc(n1)CC(NC(=O)C1CC1C)C(=O)N1CCCC(N1)C(=O)OCC(C)(C)C2 (stereo unspecified) |  |  |  |  |  |  |  |  |  | viability, T/C (compound 0.000949 µM): 28.7% [middle of 8 runs]; viability, T/C (compound 0.003 µM): 23.8% [middle of 8 runs]; viability, T/C (compound 0.00949 µM): 17.1% [middle of 8 runs]; viability, T/C (compound 0.03 µM): 13.9% [middle of 8 runs]; viability, T/C (compound 0.0949 µM): 14.7% [middle of 8 runs]; viability, T/C (compound 0.3 µM): 13.4% [middle of 8 runs]; IC50 [2]: < 0.949 nM
CCn1c(-c2cccnc2C(C)OC)c2c3cc(ccc31)N1CCOC(CC(NC(=O)C(C(C)C)N(C)C(=O)C3(F)CCN(C(=O)C#CC(C)(C)N(C)C)CC3)C(=O)N3CCCC(N3)C(=O)OCC(C)(C)C2)C1 (stereo unspecified) |  |  |  |  |  |  |  |  |  | viability, T/C (compound 0.000949 µM): 22.6% [middle of 8 runs]; viability, T/C (compound 0.00949 µM): 24.6% [middle of 8 runs]; viability, T/C (compound 0.03 µM): 24.1% [middle of 8 runs]; viability, T/C (compound 0.0949 µM): 24.9% [middle of 8 runs]; viability, T/C (compound 0.3 µM): 24.9% [middle of 8 runs]; IC50 [2]: < 0.949 nM and 4.59 nM
C[C@@H](NC(=O)c1ncnc(N)c1Cl)c1ncc(C(=O)Nc2cc(C(F)(F)F)c(Cl)cn2)s1 | 114% [middle of 4 runs] | 112% and 129% and 115% (2×) | 120% [middle of 4 runs] | 112% [middle of 4 runs] | 83.2% [middle of 4 runs] | 45.7% [middle of 4 runs] |  |  | 8.88 µM [middle of 4 runs] | 
Cc1nc(N2CCC3(CC2)COC(C)C3N)c(CO)nc1Sc1ccnc(N)c1Cl (stereo unspecified) | 65.7% [middle of 4 runs] | 55.1% [middle of 4 runs] | 43.4% [middle of 4 runs] | 41.8% [middle of 4 runs] | 42.2% [middle of 4 runs] | 40.1% [middle of 4 runs] |  |  |  | 
NC1c2ccccc2OC12CCN(c1cnc3c(N4CCCc5ncccc54)n[nH]c3n1)CC2 (stereo unspecified) | 48.2% [middle of 4 runs] | 44.8% [middle of 4 runs] | 36% [middle of 4 runs] | 47.1% [middle of 4 runs] | 41.8% [middle of 4 runs] | 49% [middle of 4 runs] |  |  | < 31.6 nM | 
O=C(c1ccc(F)c(F)c1Nc1ccc(I)cc1F)N1CC(O)([C@@H]2CCCCN2)C1 |  | 42.2% [middle of 4 runs] | 32.5% [middle of 4 runs] | 27.8% [middle of 4 runs] |  |  | 80.3% [middle of 4 runs] | 69% [middle of 4 runs] |  | 
